Measured values taken from ChEMBL document CHEMBL2163249, “Exploration of natural compounds as sources of new bifunctional scaffolds targeting cholinesterases and beta amyloid aggregation: the case of chelerythrine” (Bioorg Med Chem, 2012).

Experiments:
Acetylcholinesterase [1] = biological target: T1, Acetylcholinesterase (Electrophorus electricus, UniProt O42275); assay: Inhibition of electric eel AChE by Ellman's method
[2] = biological target: Cholinesterase (Equus caballus) (UniProt P81908); details: at 2 mg/mL
Chain of Cholinesterase (Equus caballus) (P81908 whole entry): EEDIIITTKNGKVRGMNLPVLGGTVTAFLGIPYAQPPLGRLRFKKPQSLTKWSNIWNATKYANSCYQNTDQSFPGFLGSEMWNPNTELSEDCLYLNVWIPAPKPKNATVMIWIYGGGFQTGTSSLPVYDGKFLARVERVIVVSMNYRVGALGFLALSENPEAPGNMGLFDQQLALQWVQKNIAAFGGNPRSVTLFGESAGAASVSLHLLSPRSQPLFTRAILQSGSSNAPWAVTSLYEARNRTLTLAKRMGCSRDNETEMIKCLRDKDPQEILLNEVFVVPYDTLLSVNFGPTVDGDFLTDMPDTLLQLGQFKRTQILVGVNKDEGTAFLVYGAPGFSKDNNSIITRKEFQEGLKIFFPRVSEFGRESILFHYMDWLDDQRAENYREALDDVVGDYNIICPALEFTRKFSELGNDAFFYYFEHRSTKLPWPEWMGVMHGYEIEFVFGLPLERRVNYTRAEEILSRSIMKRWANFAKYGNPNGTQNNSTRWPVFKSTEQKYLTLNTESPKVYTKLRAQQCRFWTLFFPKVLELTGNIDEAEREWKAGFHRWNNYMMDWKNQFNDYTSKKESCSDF
Description: Inhibition of horse BChE at 2 mg/ml by Ellman's method

[3] = biological target: Acetylcholinesterase (Electrophorus electricus) (UniProt O42275); details: at 2 mg/mL
Chain of Acetylcholinesterase (Electrophorus electricus) (O42275 24-633 limits assumed): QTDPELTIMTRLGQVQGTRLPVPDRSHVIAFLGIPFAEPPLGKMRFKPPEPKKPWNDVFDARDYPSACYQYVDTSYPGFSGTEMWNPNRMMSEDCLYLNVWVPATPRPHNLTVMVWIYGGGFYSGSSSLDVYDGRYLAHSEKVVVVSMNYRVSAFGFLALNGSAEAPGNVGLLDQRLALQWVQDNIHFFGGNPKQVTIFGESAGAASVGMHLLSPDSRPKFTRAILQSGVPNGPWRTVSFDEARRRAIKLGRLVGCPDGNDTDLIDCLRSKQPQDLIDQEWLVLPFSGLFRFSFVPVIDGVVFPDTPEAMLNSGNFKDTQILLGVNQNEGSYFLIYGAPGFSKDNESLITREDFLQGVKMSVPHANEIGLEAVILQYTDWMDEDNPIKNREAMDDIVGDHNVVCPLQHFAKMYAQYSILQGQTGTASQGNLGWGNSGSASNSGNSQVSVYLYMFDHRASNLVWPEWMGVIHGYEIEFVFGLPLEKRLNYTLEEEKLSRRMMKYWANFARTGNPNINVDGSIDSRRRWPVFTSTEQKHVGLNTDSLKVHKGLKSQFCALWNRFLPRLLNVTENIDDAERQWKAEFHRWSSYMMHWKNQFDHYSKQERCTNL
Description: Inhibition of electric eel AChE at 2 mg/ml by Ellman's method

Cholinesterase [4] = biological target: Cholinesterase (Homo sapiens, UniProt P06276); assay: Inhibition of human BChE by Ellman's method; details: read-out: IC50
Chain of Cholinesterase (Homo sapiens, UniProt P06276) (P06276 whole entry): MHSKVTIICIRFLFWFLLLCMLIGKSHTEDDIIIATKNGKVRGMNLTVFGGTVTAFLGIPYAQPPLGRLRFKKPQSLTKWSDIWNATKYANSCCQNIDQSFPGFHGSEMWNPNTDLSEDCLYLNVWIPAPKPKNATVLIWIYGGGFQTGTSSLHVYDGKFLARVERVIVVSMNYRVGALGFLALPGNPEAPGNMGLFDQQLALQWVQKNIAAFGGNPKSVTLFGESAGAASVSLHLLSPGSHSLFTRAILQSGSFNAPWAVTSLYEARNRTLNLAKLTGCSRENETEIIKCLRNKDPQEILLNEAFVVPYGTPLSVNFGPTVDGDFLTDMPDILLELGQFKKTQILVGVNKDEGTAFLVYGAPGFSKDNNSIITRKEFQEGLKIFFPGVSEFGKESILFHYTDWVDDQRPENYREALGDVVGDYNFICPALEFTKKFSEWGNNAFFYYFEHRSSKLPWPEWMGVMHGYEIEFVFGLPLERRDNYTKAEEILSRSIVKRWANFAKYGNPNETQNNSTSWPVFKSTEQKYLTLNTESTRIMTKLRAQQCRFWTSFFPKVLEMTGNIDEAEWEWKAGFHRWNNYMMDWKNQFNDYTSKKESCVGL

Cholinesterase [5] = biological target: Cholinesterase (Equus caballus, UniProt P81908); assay: Inhibition of horse BChE by Ellman's method
Chain of Cholinesterase (Equus caballus, UniProt P81908) (P81908 whole entry): as the sequence (P81908 whole entry) above

[6] = Inhibition of amyloid beta (1 to 40) aggregation assessed as induction of disaggregation treated 45 mins after formation of aggregates by thioflavin T fluorescence method
[7] = Inhibition of HFIP-induced amyloid beta (1 to 40) aggregation at 20 uM after 45 mins by thioflavin T fluorescence method
[8] = Inhibition of HFIP-induced amyloid beta (1 to 40) aggregation after 45 mins by thioflavin T fluorescence method
Acetylcholinesterase [9] = biological target: T2, Acetylcholinesterase (Homo sapiens, UniProt P22303)
T2 sequence (P22303 whole entry): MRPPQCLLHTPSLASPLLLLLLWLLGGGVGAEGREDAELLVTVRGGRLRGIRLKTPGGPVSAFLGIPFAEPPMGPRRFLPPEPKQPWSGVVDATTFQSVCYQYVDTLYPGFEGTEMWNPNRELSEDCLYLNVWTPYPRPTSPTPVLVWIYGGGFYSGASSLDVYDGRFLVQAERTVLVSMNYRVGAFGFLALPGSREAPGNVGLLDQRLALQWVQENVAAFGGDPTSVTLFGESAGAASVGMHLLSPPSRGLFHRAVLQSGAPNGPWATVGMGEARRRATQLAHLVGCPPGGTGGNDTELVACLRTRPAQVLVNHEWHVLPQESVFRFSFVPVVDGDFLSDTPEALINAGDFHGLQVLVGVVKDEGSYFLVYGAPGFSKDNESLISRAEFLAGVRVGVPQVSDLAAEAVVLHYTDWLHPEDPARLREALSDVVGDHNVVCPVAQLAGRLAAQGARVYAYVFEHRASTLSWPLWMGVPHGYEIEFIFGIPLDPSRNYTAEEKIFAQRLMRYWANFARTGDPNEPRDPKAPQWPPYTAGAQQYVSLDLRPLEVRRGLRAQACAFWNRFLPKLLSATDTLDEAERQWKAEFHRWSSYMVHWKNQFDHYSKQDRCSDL
Description: Inhibition of human AChE by Ellman's method

Acetylcholinesterase [10] = biological target: T2, Acetylcholinesterase; assay: Competitive inhibition of human AChE using acetyl thiocholine iodide as substrate by Lineweaver-Burk double-reciprocal analysis
Acetylcholinesterase [11] = biological target: T2, Acetylcholinesterase; assay: Uncompetitive inhibition of human AChE using acetyl thiocholine iodide as substrate by Lineweaver-Burk double-reciprocal analysis
Acetylcholinesterase [12] = biological target: T1, Acetylcholinesterase; assay: Competitive inhibition of electric eel AChE using acetyl thiocholine iodide as substrate by Lineweaver-Burk double-reciprocal analysis
[13] = Inhibition of HFIP-induced amyloid beta (1 to 40) aggregation at 10 uM after 45 mins by thioflavin T fluorescence method
Acetylcholinesterase [14] = biological target: T1, Acetylcholinesterase; assay: Uncompetitive inhibition of electric eel AChE using acetyl thiocholine iodide as substrate by Lineweaver-Burk double-reciprocal analysis
[15] = Inhibition of HFIP-induced amyloid beta (1 to 40) aggregation at 250 uM after 45 mins by thioflavin T fluorescence method
[16] = Inhibition of amyloid beta (1 to 42) aggregation
[17] = Inhibition of amyloid beta (1 to 40) aggregation assessed as induction of disaggregation at 100 uM treated 4 days after formation of aggregates by thioflavin T fluorescence method
[18] = Inhibition of amyloid beta (1 to 40) aggregation assessed as induction of disaggregation at 10 uM treated 24 hrs after formation of aggregates by thioflavin T fluorescence method
[19] = Inhibition of amyloid beta (1 to 40) aggregation assessed as induction of disaggregation at 100 uM treated 24 hrs after formation of aggregates by thioflavin T fluorescence method

T1 sequence (O42275 whole entry): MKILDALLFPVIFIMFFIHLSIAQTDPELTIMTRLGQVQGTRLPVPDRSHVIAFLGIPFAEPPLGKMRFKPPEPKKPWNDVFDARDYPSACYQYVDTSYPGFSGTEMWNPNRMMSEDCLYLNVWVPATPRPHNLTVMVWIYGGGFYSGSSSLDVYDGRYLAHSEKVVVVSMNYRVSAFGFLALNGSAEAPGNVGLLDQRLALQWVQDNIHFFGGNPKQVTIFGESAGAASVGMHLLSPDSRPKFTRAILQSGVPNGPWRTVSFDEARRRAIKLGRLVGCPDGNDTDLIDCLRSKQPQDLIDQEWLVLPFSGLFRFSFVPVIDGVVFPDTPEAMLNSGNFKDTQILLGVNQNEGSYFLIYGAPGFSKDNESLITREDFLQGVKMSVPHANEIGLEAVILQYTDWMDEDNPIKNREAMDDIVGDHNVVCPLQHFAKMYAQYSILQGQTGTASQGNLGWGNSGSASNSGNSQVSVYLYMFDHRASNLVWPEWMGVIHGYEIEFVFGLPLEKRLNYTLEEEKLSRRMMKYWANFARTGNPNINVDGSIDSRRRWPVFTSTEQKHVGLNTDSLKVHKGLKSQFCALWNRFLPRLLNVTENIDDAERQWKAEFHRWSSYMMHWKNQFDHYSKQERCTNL

SMILES: Cc1c([C@H](C)[C@@H]2NC[C@@H](C)C[C@H]2O)ccc2c1C[C@H]1[C@H]2CC=C2C[C@@H](O)CC[C@@]21C [VERATRAMINE]
- IC50 (Acetylcholinesterase [1]): Not Active
- inhibition [2]: 66.2%
- inhibition [3]: 24.5%
- IC50 (Cholinesterase [4]): 19.5 µM
- IC50 (Cholinesterase [5]; read-out: IC50): 10.8 µM

SMILES: COc1ccc2cc3[n+](cc2c1OC)CCc1cc2c(cc1-3)OCO2 [BERBERINE CHLORIDE]
- IC50 [6]: 106 µM
- inhibition [7]: 36%
- IC50 (Acetylcholinesterase [1]; read-out: IC50): 2.74 µM
- IC50 [8]: 43.8 µM
- inhibition [3]: 79%

SMILES: CCC1=C[C@@H]2CN3CCc4c([nH]c5ccccc45)[C@@](C(=O)OC)(C2)[C@@H]13 [CATHARANTHINE BASE]
- IC50 (Acetylcholinesterase [1]): Not Active
- inhibition [2]: 75.2%
- inhibition [3]: 5.28%
- IC50 (Cholinesterase [4]): 3.17 µM
- IC50 (Cholinesterase [5]; read-out: IC50): 5.17 µM

SMILES: COc1ccc2c(c[n+](C)c3c4cc5c(cc4ccc23)OCO5)c1OC [CHELERYTHRINE CHLORIDE]
- IC50 (Acetylcholinesterase [9]): 1.54 µM
- Ki (Acetylcholinesterase [10]): 0.32 µM
- Ki (Acetylcholinesterase [11]): 1.12 µM
- Ki (Acetylcholinesterase [12]): 0.48 µM
- IC50 [6]: 13 µM
- inhibition [13]: 67%
- IC50 (Acetylcholinesterase [1]; read-out: IC50): 3.78 µM
- IC50 [8]: 4.2 µM
- inhibition [2]: 83.5%
- Ki (Acetylcholinesterase [14]): 0.92 µM
- inhibition [3]: 75.9%
- IC50 (Cholinesterase [4]): 10.3 µM
- IC50 (Cholinesterase [5]; read-out: IC50): 6.33 µM

SMILES: Nc1ccc(O)cc1
- inhibition [15]: 64%

SMILES: Cl.Cl.c1ccc2c3c([nH]c2c1)[C@H]1[C@H]2CC[C@H]([C@@H]4CCCN[C@@H]42)N1CC3
- IC50 (Acetylcholinesterase [1]): Not Active
- inhibition [2]: 48.7%
- inhibition [3]: 20.5%
- IC50 (Cholinesterase [4]): 9.01 µM
- IC50 (Cholinesterase [5]; read-out: IC50): 10.6 µM

SMILES: COc1cc2c(cc1OC)-c1cc3ccc(OC)c(OC)c3c[n+]1CC2.O.[Cl-] [PALMATINE CHLORIDE HYDRATE]
- IC50 (Acetylcholinesterase [9]): 1.69 µM
- IC50 [6]: 174 µM
- IC50 [8]: 92.2 µM
- inhibition [2]: 7.47%
- inhibition [3]: 72.6%
- IC50 (Cholinesterase [5]): Not Active

SMILES: COc1cc2c3cc1Oc1c(OO)c(OC)cc4c1[C@H](Cc1ccc(cc1)Oc1cc(ccc1O)C[C@H]3N(C)CC2)N(C)CC4.O=S(=O)(O)O [OXYACANTHINE SULFATE]
- IC50 (Acetylcholinesterase [1]): Not Active
- inhibition [2]: 66.3%
- inhibition [3]: 0.62%
- IC50 (Cholinesterase [4]): 1.89 µM
- IC50 (Cholinesterase [5]; read-out: IC50): 4.1 µM

SMILES: COC(=O)[C@H]1[C@H]2C[C@H]3c4[nH]c5ccccc5c4CCN3C[C@H]2CC[C@@H]1O.Cl [RAUWOLSCINE HYDROCHLORIDE]
- IC50 (Acetylcholinesterase [1]): Not Active
- inhibition [2]: 59.1%
- inhibition [3]: 12.4%
- IC50 (Cholinesterase [4]): 13.7 µM
- IC50 (Cholinesterase [5]; read-out: IC50): 8.38 µM

SMILES: Oc1cccc2[nH]ccc12
- IC50 [16]: 85 µM

SMILES: CC(C)=CCC[C@]1(C)[C@@H](CC=C(C)C)C[C@]2(CC=C(C)C)C(=O)C(CC=C(C)C)=C(O)[C@@]1(C(=O)C(C)C)C2=O
- inhibition [17]: 20%

SMILES: Oc1ccc(/C=C/c2cc(O)cc(O)c2)cc1 [RESVERATROL]
- inhibition [18]: 71%
- IC50 [6]: 81.8 µM
- inhibition [19]: 32%
- inhibition [2]: 36.8%
- inhibition [3]: 15.1%
